Experimental findings from patent EP4603105A1, “PHARMACEUTICAL COMPOSITION CONTAINING CYCLIC COMPOUND HAVING SELECTIVE KRAS INHIBITORY EFFECT AGAINST HRAS AND NRAS” (CHUGAI SEIYAKU KABUSHIKI KAISHA, priority 2022, dated 2024) are described below.

The pIC50 is −log10 of the IC50, conventionally taken in molar units. Read a high pIC50 as a low IC50. A word on the pKd: it is −log10 of the Kd, conventionally taken in molar units. Higher therefore signals a low Kd.

pIC50, pKd: −log10 of the molar value.

Experiment [1] concerns the target GDP-bound NRAS wild-type protein (Homo sapiens, UniProt P01111). Nature of the experiment: Binding to NRAS by surface plasmon resonance (SPR), KD and KD ratio to KRAS. As to conditions: ratio of KD for GDP-bound NRAS wild-type protein to KD for KRAS. The procedure, abridged: (§1)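 GDP-bound biotin-Avi RAS captured at ~100–300 RU, 30°C, pH 7.4 HBS containing 10 µM GDP, 10 mM MgCl2, 1 mM DTT, 0.01% Tween 20 and 4% DMSO. KD by 1:1 fitting.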

Experiment [2] has as its system human lung cancer strain NCI-H441. In kind it is cell-based. The procedure, abridged: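 Readout: […] after the ATP-based reagent. Compound: serial dilutions in dimethyl sulfoxide.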
In experiment [3] the target is HRAS wild-type protein (Homo sapiens, UniProt P01112). Nature of the experiment: Binding to HRAS by surface plasmon resonance (SPR), KD and KD ratio to KRAS. As to conditions: ratio of KD for HRAS wild-type protein to KD for KRAS. The procedure, abridged: as §1
Chain of HRAS wild-type protein (P01112 whole entry): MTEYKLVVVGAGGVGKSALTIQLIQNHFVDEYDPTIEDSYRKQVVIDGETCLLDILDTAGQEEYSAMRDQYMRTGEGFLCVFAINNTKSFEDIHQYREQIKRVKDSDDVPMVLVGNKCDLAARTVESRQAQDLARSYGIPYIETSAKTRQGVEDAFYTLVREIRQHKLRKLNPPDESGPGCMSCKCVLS
In general terms: In SPR one partner is held on a chip, and binding of the other changes the refractive index at the surface.

The target of experiment [4] is GDP-bound KRAS wild-type protein (Homo sapiens, UniProt P01116). The experiment is described as follows: Binding to KRAS by surface plasmon resonance (SPR), dissociation constant KD. As to conditions: 1:1 binding model. The method in brief: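 Biotinylated GDP-bound RAS was captured at about 100–300 RU. Running buffer: HBS pH 7.4, 10 mM MgCl2, 10 µM GDP, 1 mM DTT, 0.01% Tween 20, 4% DMSO.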
Chain of GDP-bound KRAS wild-type protein (P01116 1-188 isoform P01116-2): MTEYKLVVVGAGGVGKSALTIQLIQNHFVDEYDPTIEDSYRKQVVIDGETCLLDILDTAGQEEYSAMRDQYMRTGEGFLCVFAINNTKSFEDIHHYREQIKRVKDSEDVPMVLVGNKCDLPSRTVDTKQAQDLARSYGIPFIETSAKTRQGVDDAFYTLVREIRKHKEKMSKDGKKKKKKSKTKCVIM

Chain of GDP-bound NRAS wild-type protein (P01111 whole entry): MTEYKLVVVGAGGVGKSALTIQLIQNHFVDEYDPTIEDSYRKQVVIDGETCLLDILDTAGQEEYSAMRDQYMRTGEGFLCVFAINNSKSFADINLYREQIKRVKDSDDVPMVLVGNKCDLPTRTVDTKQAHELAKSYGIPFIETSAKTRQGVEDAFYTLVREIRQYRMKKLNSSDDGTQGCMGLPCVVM

For the molecule `CCC[C@H]1C(=O)N[C@@H]([C@@H](C)CC)C(=O)N(C)CC(=O)N(C)[C@H]2C/C=C\CCN(C2=O)[C@@H](Cc2ccc(C)cc2)C(=O)N(C)CC(=O)N[C@@H](CCc2ccc3sc(C)c(C)c3c2)C(=O)N2C[C@H](OCC)C[C@H]2C(=O)NC2(CC(C)(C)C2)C(=O)N(C)[C@@H](C2CCCC2)C(=O)N(C)[C@H](C(=O)N(C)C)CC(=O)N1C` [PP2891], the “NRAS /KRAS” value in experiment [1] is “A (a compound having 10 or more and less than 20 is denoted as A)”. Further, the pIC50 in experiment [2] is 7.76. Also, in experiment [3], the “HRAS /KRAS” value was “B (a compound having 3 or more and less than 10 is denoted as B)”. This molecule also had a pKd in experiment [4] of 9.48.
Turning to `CCC[C@H]1C(=O)N[C@@H]([C@@H](C)CC)C(=O)N(C)CC(=O)N(C)[C@H]2C/C=C\CCN(C2=O)[C@@H](Cc2ccc(C(F)(F)F)cc2)C(=O)N(C)CC(=O)N[C@@H](CCc2ccc3c(C)c(C)n(C)c3c2)C(=O)N2C[C@H](OCC)C[C@H]2C(=O)NC2(CC(C)(C)C2)C(=O)N(C)[C@@H](C(CC)CC)C(=O)N(C)[C@H](C(=O)N(C)C)CC(=O)N1C` [PP2904], the “NRAS /KRAS” value in experiment [1] is reported as “AA (a compound having 20 or more is denoted as AA)”. The molecule also showed a negative-log IC50 (pIC50) in experiment [2] of 7.08. Besides, the “HRAS /KRAS” value in experiment [3] is “A (a compound having 10 or more and less than 20 is denoted as A)”. In experiment [4], the negative logarithm of the Kd (pKd) is 8.42.
Take `CCC[C@H]1C(=O)N[C@@H]([C@@H](C)CC)C(=O)N(C)CC(=O)N(C)[C@H]2C/C=C\CCN(C2=O)[C@@H](Cc2ccc(C)cc2)C(=O)N(C)CC(=O)N[C@@H](CCc2ccc3c(C)c(C)n(C)c3c2)C(=O)N2C[C@H](OCC)C[C@H]2C(=O)NC2(CC(C)(C)C2)C(=O)N(C)[C@@H](C(CC)CC)C(=O)N(C)[C@H](C(=O)N(C)C)CC(=O)N1C` [PP2906]: in experiment [1], the “NRAS /KRAS” value is “A (a compound having 10 or more and less than 20 is denoted as A)”. Further, the negative logarithm of the IC50 (pIC50) in experiment [2] is 7.00. The “HRAS /KRAS” value in experiment [3] is “A (a compound having 10 or more and less than 20 is denoted as A)”. The same molecule gave a pKd in experiment [4] of 8.26.
Regarding `CCC[C@H]1C(=O)N[C@@H]([C@@H](C)CC)C(=O)N(C)CC(=O)N(C)[C@H]2C/C=C\CCN(C2=O)[C@@H](Cc2ccc(C)cc2)C(=O)N(C)CC(=O)N[C@@H](CCc2ccc3c(C)cn(C)c3c2)C(=O)N2C[C@H](OCC)C[C@H]2C(=O)NC2(CC(C)(C)C2)C(=O)N(C)[C@@H](C(CC)CC)C(=O)N(C)[C@H](C(=O)N(C)C)CC(=O)N1C` [PP2910], in experiment [1], the “NRAS /KRAS” value is “AA (a compound having 20 or more is denoted as AA)”. In experiment [2], the negative logarithm of the IC50 (pIC50) was 7.40. For the same molecule, in experiment [3], the “HRAS /KRAS” value was “A (a compound having 10 or more and less than 20 is denoted as A)”. Moreover, the pKd in experiment [4] was 8.52.
Turning to `CCC[C@H]1C(=O)N[C@@H]([C@@H](C)CC)C(=O)N(C)CC(=O)N(C)[C@H]2C/C=C\CCN(C2=O)[C@@H](Cc2ccc(C)cc2)C(=O)N(C)CC(=O)N[C@@H](CCc2ccc3ccn(C)c3c2)C(=O)N2C[C@H](OCC)C[C@H]2C(=O)NC2(CC(C)(C)C2)C(=O)N(C)[C@@H](C(CC)CC)C(=O)N(C)[C@H](C(=O)N(C)C)CC(=O)N1C` [PP2914], the “NRAS /KRAS” value in experiment [1] is on record as “AA (a compound having 20 or more is denoted as AA)”. Also, the negative logarithm of the IC50 (pIC50) in experiment [2] is 6.51. The “HRAS /KRAS” value in experiment [3] is “A (a compound having 10 or more and less than 20 is denoted as A)”. In experiment [4], this molecule gave a negative-log Kd (pKd) of 7.85.
`CCC(CC)[C@H]1C(=O)N(C)[C@H](C(=O)N(C)C)CC(=O)N(C)[C@@H](COC)C(=O)N[C@@H]([C@@H](C)CC)C(=O)N(C)CC(=O)N(C)[C@H]2C/C=C\CCN(C2=O)[C@@H](Cc2ccc(C)cc2)C(=O)N(C)CC(=O)N[C@@H](CCc2cc(F)c(C(F)(F)F)c(F)c2)C(=O)N2CCCC[C@H]2C(=O)NC2(CC(C)(C)C2)C(=O)N1C` [PP2922]: the “NRAS /KRAS” value in experiment [1] is given as “AA (a compound having 20 or more is denoted as AA)”. The molecule further had a pIC50 in experiment [2] of 7.26. For the same molecule, in experiment [3], the “HRAS /KRAS” value was “A (a compound having 10 or more and less than 20 is denoted as A)”. The same molecule had a pKd in experiment [4] of 8.96.
For the molecule `CCC(CC)[C@H]1C(=O)N(C)[C@H](C(=O)N(C)C)CC(=O)N(C)[C@@H](COC)C(=O)N[C@@H]([C@@H](C)CC)C(=O)N(C)CC(=O)N(C)[C@H]2C/C=C\CCN(C2=O)[C@@H](Cc2ccc(C)cc2)C(=O)N(C)CC(=O)N[C@@H](CCc2ccc(C(F)(F)F)c(Cl)c2)C(=O)N2CCCC[C@H]2C(=O)NC2(CC(C)(C)C2)C(=O)N1C` [PP2931], the “NRAS /KRAS” value in experiment [1] was “A (a compound having 10 or more and less than 20 is denoted as A)”. Further, the negative-log IC50 (pIC50) in experiment [2] is 7.18. Further, the “HRAS /KRAS” value in experiment [3] is “A (a compound having 10 or more and less than 20 is denoted as A)”. The negative-log Kd (pKd) in experiment [4] was 8.72.
As to `CCC(CC)[C@H]1C(=O)N(C)[C@H](C(=O)N(C)C)CC(=O)N(C)[C@@H](COC)C(=O)N[C@@H]([C@@H](C)CC)C(=O)N(C)CC(=O)N(C)[C@H]2C/C=C\CCN(C2=O)[C@@H](Cc2ccc(C)cc2)C(=O)N(C)CC(=O)N[C@@H](CCc2ccc(C(F)(F)F)c(OC)c2)C(=O)N2CCCC[C@H]2C(=O)NC2(CC(C)(C)C2)C(=O)N1C` [PP2937], in experiment [1], the “NRAS /KRAS” value is “A (a compound having 10 or more and less than 20 is denoted as A)”. Besides, the pIC50 in experiment [2] is 6.86. For the same molecule, the “HRAS /KRAS” value in experiment [3] is “A (a compound having 10 or more and less than 20 is denoted as A)”. The pKd in experiment [4] is 8.96.
`CCC(CC)[C@H]1C(=O)N(C)[C@H](C(=O)N(C)C)CC(=O)N(C)[C@@H](COC)C(=O)N[C@@H]([C@@H](C)CC)C(=O)N(C)CC(=O)N(C)[C@H]2C/C=C\CCN(C2=O)[C@@H](Cc2ccc(C)cc2)C(=O)N(C)CC(=O)N[C@@H](CCc2ccc(C(F)(F)F)c(OC)c2)C(=O)N2CCOC[C@H]2C(=O)NC2(CC(C)(C)C2)C(=O)N1C` [PP2938]: the “NRAS /KRAS” value in experiment [1] is recorded as “AA (a compound having 20 or more is denoted as AA)”. In addition, the negative logarithm of the IC50 (pIC50) in experiment [2] is 6.98. In experiment [3], the “HRAS /KRAS” value is “A (a compound having 10 or more and less than 20 is denoted as A)”. Also, the pKd in experiment [4] was 8.96.
For `CCC[C@H]1C(=O)N[C@@H]([C@@H](C)CC)C(=O)N(C)CC(=O)N(C)[C@H]2C/C=C\CCN(C2=O)[C@@H](Cc2ccc(C)cc2)C(=O)N(C)CC(=O)N[C@@H](CCc2cc(Cl)c3sccc3c2)C(=O)N2C[C@H](OCC)C[C@H]2C(=O)NC2(CC(C)(C)C2)C(=O)N(C)[C@@H](C2CCCC2)C(=O)N(C)[C@H](C(=O)N(C)C)CC(=O)N1C` [PP2947], the “NRAS /KRAS” value in experiment [1] is “B (a compound having 3 or more and less than 10 is denoted as B)”. For the same molecule, the pIC50 in experiment [2] was 8.46. The “HRAS /KRAS” value in experiment [3] was “B (a compound having 3 or more and less than 10 is denoted as B)”. Besides, in experiment [4], the pKd is 9.92.
Turning to `CCC[C@H]1C(=O)N[C@@H]([C@@H](C)CC)C(=O)N(C)CC(=O)N(C)[C@H]2C/C=C\CCN(C2=O)[C@@H](Cc2ccc(C(F)(F)F)cc2)C(=O)N(C)CC(=O)N[C@@H](CCc2ccc3sc(F)c(C)c3c2)C(=O)N2C[C@H](OCC)C[C@H]2C(=O)NC2(CC(C)(C)C2)C(=O)N(C)[C@@H](C2CCCC2)C(=O)N(C)[C@H](C(=O)N(C)C)CC(=O)N1C` [PP2948], in experiment [1], the “NRAS /KRAS” value is “A (a compound having 10 or more and less than 20 is denoted as A)”. The pIC50 in experiment [2] was 8.48. In addition, in experiment [3], the “HRAS /KRAS” value is “A (a compound having 10 or more and less than 20 is denoted as A)”. Moreover, the pKd in experiment [4] is 9.26.
